Assay results: US7456156B2, “Aryl boronic acids for treating obesity” (Genzyme Corporation, priority 2001, dated 2008)

Tested on: fat absorption through lipase inhibition
Experiment: In vivo infusion assay in rats (olive oil gavage, triglyceride recovered from intestinal contents)
Settings: rats gavaged with 4 mL olive oil emulsion with drug after 18 hour fast, intestinal contents after 8 hours; for In Vivo Infusion Assay in Rats ED50 (mg/g fat) or estimate: dose at half the maximum recoverable triglyceride
Method: Test compounds were dissolved in DMSO or dionized water. […] Samples were stored at −80° C. until lyophilization.
3 milliliters of hexane was added to each tube then it was capped and vortexed for 15 seconds at high speed. 3 milliliters of 1 N HCl was added then samples were subjected to wrist-action shaking for 1 hour.
The data was expressed as follows. […] The milligrams/liters values obtained from the HPLC analysis were entered.

| Compound | In Vivo Infusion Assay in Rats ED50 (mg/g fat) or estimate | In Vivo Infusion Assay in Rats Ed50 (mg/kg body wt) or estimate (dose per body weight) | ED50 (Rattus norvegicus, po, dose per body weight, read-out: In Vivo Infusion Assay in Rats Ed50 (mg/kg body wt) or estimate) |
| --- | --- | --- | --- |
| 4-(14′-triethylammonium-3′-thia-1′-keto-tetradecyl)-3-phenyl-boronic acid bromide | 11 mg/g fat | 82.5 mg/kg body wt |  |
| 4-(14′-trimethylammonium-3′-thia-1′-keto-tridecyl)-3-fluorophenyl-boronic acid bromide | 2 mg/g fat | 15 mg/kg body wt |  |
| C[N+](C)(C)CCCCCCCCCCCSCC(=O)c1ccc(B(O)O)cc1 [4-(14′-trimethylammonium-3′-thia-1′-keto-tetradecyl)-phenyl-boronic acid bromide] | 8 mg/g fat |  | 60 mg/kg |
